From the NIST ThermoML archive (doi:10.1016/j.jct.2017.08.004)
Numbers after ± are expanded uncertainties.

Test: molar heat capacity at constant pressure
Conditions: 101.33 kPa

OC[C@@H](O)C(O)[C@H](O)CO [D-arabitol]
molar heat capacity at constant pressure [J/K/mol]
Conditions	Small sample (50 mg) DSC	relaxation calorimetry
250.15 K, Crystal	167.62 ± 14	–
251.15 K, Crystal	168.09 ± 14	–
252.02 K, Crystal	–	171.93 ± 11
252.15 K, Crystal	168.72 ± 14	–
253.15 K, Crystal	169.42 ± 14	–
254.15 K, Crystal	170.21 ± 14	–
255.15 K, Crystal	170.83 ± 14	–
256.15 K, Crystal	171.49 ± 14	–
257.15 K, Crystal	172.29 ± 14	–
258.15 K, Crystal	172.95 ± 14	–
259.15 K, Crystal	173.8 ± 14	–
260 K, Crystal	–	176.9 ± 11
260.15 K, Crystal	174.49 ± 14	–
261.15 K, Crystal	175.07 ± 14	–
262.08 K, Crystal	–	178.58 ± 11
262.15 K, Crystal	175.71 ± 14	–
263.15 K, Crystal	176.2 ± 14	–
264.15 K, Crystal	176.94 ± 14	–
265.15 K, Crystal	177.53 ± 14	–
266.15 K, Crystal	177.9 ± 14	–
267.15 K, Crystal	178.76 ± 15	–
268.15 K, Crystal	179.47 ± 15	–
269.15 K, Crystal	180.14 ± 15	–
270 K, Crystal	–	183.17 ± 11
270.15 K, Crystal	180.88 ± 15	–
271.15 K, Crystal	181.55 ± 15	–
272.1 K, Crystal	–	184.8 ± 11
272.15 K, Crystal	182.34 ± 15	–
273.15 K, Crystal	183.05 ± 15	185.17 ± 11
274.15 K, Crystal	183.84 ± 15	–
275.15 K, Crystal	184.43 ± 15	–
276.15 K, Crystal	185.01 ± 15	–
277.15 K, Crystal	185.89 ± 15	–
278.15 K, Crystal	186.82 ± 15	–
279.15 K, Crystal	187.46 ± 15	–
280 K, Crystal	–	189.54 ± 12
280.15 K, Crystal	187.87 ± 15	–
281.15 K, Crystal	188.79 ± 15	–
282.15 K, Crystal	189.61 ± 15	–
282.16 K, Crystal	–	190.77 ± 12
283.15 K, Crystal	190.26 ± 15	–
284.15 K, Crystal	190.76 ± 16	–
285.15 K, Crystal	191.48 ± 16	–
286.15 K, Crystal	192.29 ± 16	–
287.15 K, Crystal	192.88 ± 16	–
288.15 K, Crystal	193.55 ± 16	–
289.15 K, Crystal	194.1 ± 16	–
290 K, Crystal	–	196 ± 12
290.15 K, Crystal	195.02 ± 16	–
291.15 K, Crystal	195.84 ± 16	–
292.15 K, Crystal	196.49 ± 16	–
292.31 K, Crystal	–	197.61 ± 12
293.15 K, Crystal	197.3 ± 16	–
294.15 K, Crystal	198.27 ± 16	–
295.15 K, Crystal	198.8 ± 16	–
296.15 K, Crystal	199.7 ± 16	–
297.15 K, Crystal	200.51 ± 16	–
298.15 K, Crystal	201.09 ± 16	201.35 ± 12
299.15 K, Crystal	201.8 ± 16	–
300 K, Crystal	–	202.57 ± 12
300.15 K, Crystal	202.43 ± 16	–
301.15 K, Crystal	203.27 ± 17	–
302.15 K, Crystal	203.89 ± 17	–
302.32 K, Crystal	–	203.84 ± 12
303.15 K, Crystal	204.69 ± 17	–
304.15 K, Crystal	205.64 ± 17	–
305 K, Crystal	206.38 ± 17	–
305.15 K, Crystal	206.52 ± 17	–
306.15 K, Crystal	207.29 ± 17	–
307.15 K, Crystal	207.99 ± 17	–
308.15 K, Crystal	209.04 ± 17	–
309.15 K, Crystal	210.24 ± 17	–
310 K, Crystal	210.77 ± 17	–
310.15 K, Crystal	211.11 ± 17	–
311.15 K, Crystal	212.09 ± 17	–
312.15 K, Crystal	213.04 ± 17	–
313.15 K, Crystal	213.93 ± 17	–
314.15 K, Crystal	214.62 ± 17	–
315 K, Crystal	215.3 ± 17	–
315.15 K, Crystal	215.49 ± 18	–
316.15 K, Crystal	216.44 ± 18	–
317.15 K, Crystal	217.32 ± 18	–
318.15 K, Crystal	218.08 ± 18	–
319.15 K, Crystal	218.98 ± 18	–
320 K, Crystal	219.92 ± 18	–
320.15 K, Crystal	219.94 ± 18	–
321.15 K, Crystal	220.72 ± 18	–
322.15 K, Crystal	221.63 ± 18	–
323.15 K, Crystal	222.6 ± 18	–
324.15 K, Crystal	223.41 ± 18	–
325 K, Crystal	224.62 ± 18	–
325.15 K, Crystal	224.24 ± 18	–
326.15 K, Crystal	225.48 ± 18	–
327.15 K, Crystal	226.61 ± 18	–
328.15 K, Crystal	227.57 ± 18	–
329.15 K, Crystal	228.54 ± 19	–
330 K, Crystal	229.51 ± 19	–
330.15 K, Crystal	229.69 ± 19	–
331.15 K, Crystal	231.05 ± 19	–
332.15 K, Crystal	232.16 ± 19	–
333.15 K, Crystal	233.08 ± 19	–
334.15 K, Crystal	234.14 ± 19	–
335 K, Crystal	234.75 ± 19	–
335.15 K, Crystal	235.21 ± 19	–
336.15 K, Crystal	236.36 ± 19	–
337.15 K, Crystal	237.46 ± 19	–
338.15 K, Crystal	238.56 ± 19	–
339.15 K, Crystal	239.77 ± 19	–
340 K, Crystal	240.61 ± 20	–
340.15 K, Crystal	240.89 ± 20	–
341.15 K, Crystal	242.17 ± 20	–
342.15 K, Crystal	243.41 ± 20	–
343.15 K, Crystal	244.65 ± 20	–
344.15 K, Crystal	245.91 ± 20	–
345 K, Crystal	247.41 ± 20	–
345.15 K, Crystal	247.41 ± 20	–
346.15 K, Crystal	248.94 ± 20	–
350 K, Crystal	255.58 ± 21	–
394.05 K, Liquid	448.1 ± 36	–
394.15 K, Liquid	448.11 ± 36	–
395 K, Liquid	447.62 ± 36	–
395.15 K, Liquid	447.51 ± 36	–
396.15 K, Liquid	447.26 ± 36	–
397.15 K, Liquid	446.68 ± 36	–
398.15 K, Liquid	446.29 ± 36	–
399.15 K, Liquid	446.43 ± 36	–
400 K, Liquid	446.52 ± 36	–
400.15 K, Liquid	446.4 ± 36	–
401.15 K, Liquid	446.31 ± 36	–
402.15 K, Liquid	446.59 ± 36	–
403.15 K, Liquid	447.05 ± 36	–
404.15 K, Liquid	446.97 ± 36	–
405 K, Liquid	447.4 ± 36	–
405.15 K, Liquid	447.29 ± 36	–
406.15 K, Liquid	447.83 ± 36	–
407.15 K, Liquid	447.84 ± 36	–
408.15 K, Liquid	448.15 ± 36	–
409.15 K, Liquid	448.6 ± 36	–
410 K, Liquid	449.23 ± 36	–
410.15 K, Liquid	448.95 ± 36	–
411.15 K, Liquid	449.41 ± 37	–
412.15 K, Liquid	449.97 ± 37	–
413.15 K, Liquid	450.76 ± 37	–
414.15 K, Liquid	451.47 ± 37	–
415 K, Liquid	452.02 ± 37	–
415.15 K, Liquid	452.79 ± 37	–
416.15 K, Liquid	453.35 ± 37	–
417.15 K, Liquid	453.87 ± 37	–
418.15 K, Liquid	454.54 ± 37	–
419.15 K, Liquid	456.24 ± 37	–
420 K, Liquid	455.76 ± 37	–
420.15 K, Liquid	456.5 ± 37	–
421.15 K, Liquid	457.07 ± 37	–
422.15 K, Liquid	457.63 ± 37	–
423.15 K, Liquid	457.94 ± 37	–
424.15 K, Liquid	458.28 ± 37	–
